Reference: US20150080580A1, “THIOUREA DERIVATIVES AS a-CHYMOTRYPSIN INHIBITORS” (priority 2013, published 2015)

How the values were obtained:
3T3 cell line = assay: Cell proliferation inhibition (cytotoxicity) MTT assay for 3T3 cell line; format: cell-based, Mouse
Experimental: (§1) It was evaluated by using the MTT (3-[4,5-dimethylthiazole-2-yl]-2,5-diphenyl-tetrazolium bromide) assay (Mosmann, 1983). The 3T3 cell-lines (Mouse Fibroblasts) were cultured in Dulbecco's Modified Eagle's Medium, which was later supplemented with 5% of bovine serum, 100 IU/mL of penicillin, and 100 μg/mL of streptomycin, in 5% CO2 incubator at 37° C. Exponentially growing cell, 1×10^4 cells/well incorporated into each well of 96-well plates. Then, fresh the medium containing different concentrations of compounds were loaded in each well after 24 hours. Again, after 72 hrs, fresh the medium containing 0.5 mg/mL MTT were loaded in each well, and incubated further for 4 hrs. Subsequently, the media containing MTT was replaced by 100 μL of DMSO for 15 min, and then the absorbance was taken at 570 nm.

[1] = as above; format: cell-based, Mouse; conditions: 3T3 mouse fibroblast cells; 3T3 mouse fibroblasts, MTT, 72 hrs, n = 3; read-out: 3T3 cell-line GI50 ± SEM
Experimental: as §1

α-Chymotrypsin [2] = target: T1, α-Chymotrypsin (Bos taurus, UniProt P00766); assay: α-Chymotrypsin inhibition kinetic study (Lineweaver-Burk, Dixon, Hanes-Woolf plots); format: biochemical, bovine; conditions: for Type of inhibition: from Lineweaver-Burk, Dixon and Hanes-Woolf plots; for Ki: substrate SPpNA 0.4-3.2 mM, n = 3, read-out: Ki ± SEM
T1 construct: purchased Sigma-Aldrich (USA) C4129; host or cells: bovine pancreas
Excerpt: (§2) α-Chymotrypsin (bovine pancreas, C4129) and N-succinyl-L-phenylalanine-p-nitroaniline (S2628) were purchased from Sigma-Aldrich (USA). Chymostatin (152845) from MP Biomedicals, LLC, USA, Tris(hydroxymethyl)aminomethane from Scharlau Chemie Barcelona, Spain and all other reagents were obtained from E. Merck and were of analytical grade. All other solvents and reagents were of analytical grade and used directly without purification.
The change in concentration of the substrate/product (rate of reaction) was measured as optical density per minute (OD/min). This OD/min was obtained by incorporating different concentrations of compounds over substrate (SPpNA) concentrations between 0.4 mM and 3.2 mM in micro-plate reader. Reciprocal of OD/min against the reciprocal of the substrate concentration, defined as Lineweaver-Burk plot (and its secondary plot; slope vs compound concentration); the Dixon plot (and its secondary plot; slope vs reciprocal of compound concentration) and then Hanes-Woolf plot were plotted (Lineweaver et al., 1934; Dixon, 1953; Segel, 1993) Graphs were plotted using GraFit 4 (Erithacus Software Limited, Surrey, UK) and GraphPad Prism 5 (GraphPad Software, California, USA). The types of inhibition were determined by the graphical views of Dixon plots, Lineweaver-Burk plots and their secondary plots as well as Hanes-Woolf plot. The Ki values, obtained directly from the software, also were cross-checked and tallied in these graphs. Final concentration of DMSO was maintained 5.5%.

α-Chymotrypsin [3] = target: T1, α-Chymotrypsin; assay: α-Chymotrypsin inhibition assay (SPpNA substrate, absorbance at 410 nm); format: biochemical, bovine; conditions: α-chymotrypsin, substrate SPpNA 0.4 mM, pH 7.6, 30° C., n = 3
Experimental: as §2
This was performed in 50 mM Tris-HCl buffer pH 7.6 with 10 mM CaCl2. α-Chymotrypsin (12 units/mL prepared in 50 mM Tris-HCl buffer) with the different concentration of test compounds prepared in DMSO. It was then incubated at 30° C. for 25 min. The reaction was started by the addition of the substrate, N-succinyl-L-phenylalanine-p-nitroanilide (final concentration of 0.4 mM, prepared in the buffer as mentioned above). The change in absorbance due to released p-nitroaniline was continuously monitored at 410 nm (Choudhary et al., 2011). All the experiments were in a final volume of 200 μL in triplicate, and data was taken using a micro-plate reader (SpectraMax M2, Molecular Devices, Calif., USA).
The results were processed by using SoftMax Pro 4.8 then analyzed by MS Excel software. The % of inhibition based upon initial velocity and calculated as: […]
IC50 (Inhibition of enzymatic hydrolysis of the substrate SPpNA by 50%) value was calculated using EZ-Fit software (Perellela Scientific, Inc., Amherst, Mars, USA).

SMILES	growth inhibition for 3T3 cell lines (in words) (3T3 cell line)	GI50 at 72 h [1]	Type of inhibition (α-Chymotrypsin [2])	Ki (α-Chymotrypsin [2])	IC50 (α-Chymotrypsin [3])
S=C(Nc1cccc(Cl)c1)Nc1ccc(Cl)cc1Cl [Compound 8, 1-(3-Chlorophenyl)-3-(2,4-dichlorophenyl) thiourea]	showed growth inhibition	21.4 ± 0.1 µM	Mixed	31.8 ± 3.4 µM	42.4 ± 0.3 µM
Cc1ccc(NC(=S)Nc2cccc(Cl)c2)cc1 [Compound 9, 1-(3-Chlorophenyl)-3-p-tolylthiourea]	showed growth inhibition	2.3 ± 0.4 µM	Non- Competitive	39.6 ± 1 µM	46.2 ± 0.5 µM
